Here are results for two molecules from paper PMC4839669, “Heterologous Expression and Biochemical Characterization of Two Lipoxygenases in Oriental Melon, Cucumis melo var. makuwa Makino” (PLoS ONE, 2016).

The test concerns the target T1, CmLOX10 (Cucumis melo, UniProt A0A125S6K7).
T1 construct: gene LOX10; full-length 902 residues incl. predicted 37-residue transit peptide; N-terminal His tag (pET-30a), E. coli BL21(DE3), Ni-NTA
T1 sequence (A0A125S6K7 1-902): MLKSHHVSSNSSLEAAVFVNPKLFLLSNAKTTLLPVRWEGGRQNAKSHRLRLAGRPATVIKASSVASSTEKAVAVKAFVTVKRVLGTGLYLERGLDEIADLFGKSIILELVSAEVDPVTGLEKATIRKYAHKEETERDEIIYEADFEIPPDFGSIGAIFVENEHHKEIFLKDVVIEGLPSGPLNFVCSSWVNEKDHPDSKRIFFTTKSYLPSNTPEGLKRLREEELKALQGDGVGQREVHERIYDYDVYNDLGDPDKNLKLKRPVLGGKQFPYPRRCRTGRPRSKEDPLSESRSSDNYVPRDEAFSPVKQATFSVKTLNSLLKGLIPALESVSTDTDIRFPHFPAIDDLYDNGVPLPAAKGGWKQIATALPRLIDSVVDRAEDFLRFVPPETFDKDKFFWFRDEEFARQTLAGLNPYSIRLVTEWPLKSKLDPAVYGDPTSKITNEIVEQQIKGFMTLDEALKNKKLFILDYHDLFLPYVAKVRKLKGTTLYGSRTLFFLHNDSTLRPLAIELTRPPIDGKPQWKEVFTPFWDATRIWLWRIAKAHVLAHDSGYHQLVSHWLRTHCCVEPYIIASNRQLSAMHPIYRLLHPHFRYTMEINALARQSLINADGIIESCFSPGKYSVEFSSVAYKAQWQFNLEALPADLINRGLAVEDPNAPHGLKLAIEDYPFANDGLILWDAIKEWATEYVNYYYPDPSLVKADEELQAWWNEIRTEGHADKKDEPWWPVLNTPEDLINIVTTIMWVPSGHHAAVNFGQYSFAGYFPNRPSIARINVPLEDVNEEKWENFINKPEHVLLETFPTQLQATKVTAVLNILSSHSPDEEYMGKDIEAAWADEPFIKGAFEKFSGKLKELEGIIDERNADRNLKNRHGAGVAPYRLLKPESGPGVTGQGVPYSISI
In words: conjugated diene formation at […] nm, Michaelis-Menten. The format is biochemical. As to conditions: 25 °C, saturating oxygen, 16.5-330 μM substrate; pH of kinetics not stated explicitly (optimum pH 5.0).

A word on the Km: it is the substrate concentration at which the rate is half of its maximum. `CC/C=C\C/C=C\C/C=C\CCCCCCCC(=O)O` [linolenic acid]: the Km amounted to 140 µM. The value for `CCCCC/C=C\C/C=C\CCCCCCCC(=O)O` [linoleic acid] was 230 µM.
